The values that follow are results of earlier work, collected in patent US20110295365A1, “Anti-viral compositions and methods for administration” (Searete LLC, a limited liability corporation of the State …, priority 2010, published 2011).

The conditions of series [1]: in vivo.

On to `O=C[C@@H](O)[C@@H](O)[C@H](O)[C@H](O)COP(=O)(O)O` [mannose 6-phosphate], for which the “inhibition of viral entry” value in the series with varicella zoster virus is listed as “inhibition of viral entry”.

As for enfuvirtide, the “passage across the placenta from mother to child” value in series [1] was “do not efficiently pass from mother to child”. Take heparin: the “inhibition of viral entry” value with varicella zoster virus was “inhibition of viral entry”.
